This is an account of results in patent US11351178B2, “Selective HDAC6 inhibitors” (ITALFARMACO S.P.A., priority 2017, dated 2022).

The structures appear in SMILES notation. Read-outs that look alike come from different tables or passages of the source. Some results are limits rather than exact numbers.

Data set [1] deals with T1, recombinant human HDAC6 (Homo sapiens, UniProt Q9UBN7).
T1 sequence (Q9UBN7 1-1215): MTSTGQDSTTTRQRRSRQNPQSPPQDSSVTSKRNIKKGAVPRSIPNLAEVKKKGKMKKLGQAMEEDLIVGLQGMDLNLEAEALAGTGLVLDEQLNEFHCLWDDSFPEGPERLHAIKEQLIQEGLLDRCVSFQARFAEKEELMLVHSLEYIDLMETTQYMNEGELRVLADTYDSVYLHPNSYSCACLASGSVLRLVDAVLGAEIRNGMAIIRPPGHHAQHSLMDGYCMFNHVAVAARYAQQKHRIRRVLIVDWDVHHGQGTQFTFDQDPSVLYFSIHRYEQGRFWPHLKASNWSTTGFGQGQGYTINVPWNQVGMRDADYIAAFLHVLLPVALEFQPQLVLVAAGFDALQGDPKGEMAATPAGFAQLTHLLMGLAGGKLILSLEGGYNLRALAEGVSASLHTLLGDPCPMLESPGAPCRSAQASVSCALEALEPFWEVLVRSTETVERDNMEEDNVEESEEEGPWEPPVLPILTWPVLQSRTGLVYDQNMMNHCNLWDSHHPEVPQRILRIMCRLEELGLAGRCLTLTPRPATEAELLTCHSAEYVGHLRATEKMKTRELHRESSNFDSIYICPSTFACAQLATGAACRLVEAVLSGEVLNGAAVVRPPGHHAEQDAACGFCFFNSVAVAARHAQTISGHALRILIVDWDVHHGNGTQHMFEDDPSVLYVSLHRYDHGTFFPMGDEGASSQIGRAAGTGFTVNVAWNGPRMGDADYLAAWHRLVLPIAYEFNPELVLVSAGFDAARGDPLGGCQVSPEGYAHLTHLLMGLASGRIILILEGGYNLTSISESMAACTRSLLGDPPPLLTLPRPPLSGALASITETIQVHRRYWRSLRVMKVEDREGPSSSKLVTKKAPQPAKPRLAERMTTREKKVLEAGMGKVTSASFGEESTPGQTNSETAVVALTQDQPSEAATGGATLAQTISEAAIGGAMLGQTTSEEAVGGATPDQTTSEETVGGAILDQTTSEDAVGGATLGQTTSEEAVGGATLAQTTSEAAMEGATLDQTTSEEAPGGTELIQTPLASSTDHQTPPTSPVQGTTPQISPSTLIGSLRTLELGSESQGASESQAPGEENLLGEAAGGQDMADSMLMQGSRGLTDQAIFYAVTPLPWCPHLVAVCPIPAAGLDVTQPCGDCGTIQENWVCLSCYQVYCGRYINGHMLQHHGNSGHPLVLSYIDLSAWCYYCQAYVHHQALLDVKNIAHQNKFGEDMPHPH
Description: Enzymatic screening on recombinant human HDAC6. Conditions: read-out: HDAC6 IC50. Format: biochemical. In outline: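 Deacetylase activity of recombinant human isoforms is measured with FLUOR DE LYS, FLUOR DE LYS-Green or trifluoroacetyl-L-lysine substrates, supplied at 2× in 25 mM Tris-HCl, pH 8, 130 mM NaCl, 0.05% Tween-20, 10% glycerol. Both the enzyme-compound preincubation, of isoform-specific length, and the substrate reaction run at 30 °C.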

For data set [2], the system named is B 697 promyelocytic cell line. Description: Cytotoxicity on 697 cell line (CellTiter 96). Format: cell-based. As to conditions: 72 hours incubation, read-out: 697 TOXICITY
A digest of the protocol: (§1)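 Cells seeded (2×10^4/well for 697, 5×10^5/well for PBMCs); compounds added after 24 h at 1–10000 nM (697) or 1.5–10000 nM (PBMCs) and incubated 72 h. Viability read by CellTiter 96 Aqueous One tetrazolium assay of mitochondrial function.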

The subject of data set [3] is peripheral blood mononuclear cells (PBMCs). Put plainly: Cytotoxicity on PBMCs (CellTiter 96). Format: cell-based. As to conditions: PBMC, 72 h; read-out: PBMC TOXICITY (72 h). In outline: as §1
Data set [4] is described as follows: Stability to Phase I metabolism in rat S9 liver fraction. As to conditions: after 90 min, 37° C. Format: in vitro ADME. In outline:
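Compounds were incubated with rat or human liver S9 fraction at 37 °C for up to 90 min. Reactions were quenched on ice with acidified acetonitrile and analysed by HPLC-UV or LC-MS/MS. Percent remaining versus time zero and intrinsic clearance were calculated.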

The nature of data set [5]: Stability in rat plasma. Format: in vitro ADME. Conditions: after 4 hours, 37° C. In outline: (§2)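 Compounds incubated at 37° C in rat or human plasma at 50 μM (UV/HPLC) or 1 or 2 μM (LC-MS/MS) for 0–4 h. Reaction stopped with acidified acetonitrile on ice; percent remaining versus initial amount and plasma half-life calculated.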
A short description of data set [6]: Stability in human plasma. Format: in vitro ADME. As to conditions: after 4 hours, 37° C. A digest of the protocol: as §2
Data set [7] addresses T2, HDAC1 (Homo sapiens, UniProt Q13547).
T2 construct: purchased BPS 50051
Put plainly: Enzymatic test HDAC1. Format: biochemical. As to conditions: Table 3.

For data set [8], the target named is T3, HDAC2 (Homo sapiens, UniProt Q92769).
T3 construct: purchased BPS 50002
T3 sequence (Q92769 whole entry): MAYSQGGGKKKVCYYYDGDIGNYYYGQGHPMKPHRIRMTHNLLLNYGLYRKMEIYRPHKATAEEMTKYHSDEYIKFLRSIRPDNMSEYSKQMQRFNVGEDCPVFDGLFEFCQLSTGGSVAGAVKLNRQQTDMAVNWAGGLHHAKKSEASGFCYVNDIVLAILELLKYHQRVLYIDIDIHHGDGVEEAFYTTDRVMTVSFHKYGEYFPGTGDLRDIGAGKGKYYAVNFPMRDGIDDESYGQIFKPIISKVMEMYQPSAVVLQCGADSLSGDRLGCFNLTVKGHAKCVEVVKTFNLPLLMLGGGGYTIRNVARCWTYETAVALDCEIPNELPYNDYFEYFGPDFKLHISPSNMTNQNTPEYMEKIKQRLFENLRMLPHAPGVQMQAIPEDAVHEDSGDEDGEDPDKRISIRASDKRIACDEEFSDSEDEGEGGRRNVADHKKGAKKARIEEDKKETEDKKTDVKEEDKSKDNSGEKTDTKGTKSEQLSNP
Description: Enzymatic test HDAC2. Conditions: Table 3. Format: biochemical.

The target of data set [9] is T4, HDAC5 (Homo sapiens, UniProt Q9UQL6).
T4 construct: purchased BPS 50005
T4 sequence (Q9UQL6 656-1122 limits assumed): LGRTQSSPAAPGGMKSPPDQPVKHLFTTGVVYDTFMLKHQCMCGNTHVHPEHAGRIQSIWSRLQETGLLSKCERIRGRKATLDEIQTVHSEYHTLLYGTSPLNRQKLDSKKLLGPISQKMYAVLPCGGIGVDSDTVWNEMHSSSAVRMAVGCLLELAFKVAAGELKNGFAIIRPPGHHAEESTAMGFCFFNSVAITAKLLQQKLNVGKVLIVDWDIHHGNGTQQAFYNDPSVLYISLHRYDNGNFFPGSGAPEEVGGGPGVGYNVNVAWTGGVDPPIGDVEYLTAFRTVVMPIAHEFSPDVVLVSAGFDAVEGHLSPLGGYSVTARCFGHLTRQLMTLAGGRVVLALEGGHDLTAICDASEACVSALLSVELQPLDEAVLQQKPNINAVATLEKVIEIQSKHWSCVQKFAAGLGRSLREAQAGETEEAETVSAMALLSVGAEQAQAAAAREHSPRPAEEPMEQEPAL
Put plainly: Enzymatic test HDAC5. Format: biochemical. Conditions: Table 3. How it is done:
After a period of incubation at 30° C. (incubation times vary for different isoforms and are shown in table 1) 25 μL of solution containing the substrate were added. As substrate, FLUOR DE LYS® deacetylase substrate (Enzo Life Sciences, cat #BML-K1104, FdL), FLUOR DE LYS®-Green substrate (Enzo Life Sciences, cat #BML-K1572 FdL_G) and trifluoroacetyl-L-lysine (Tfal)-2× concentrated solution in 25 mM Tris-HCl, pH 8, 130 mM NaCl 0.05% Tween-20 10% glycerol) were used. Following a reaction period at 30° C.

T2 sequence (Q13547 whole entry): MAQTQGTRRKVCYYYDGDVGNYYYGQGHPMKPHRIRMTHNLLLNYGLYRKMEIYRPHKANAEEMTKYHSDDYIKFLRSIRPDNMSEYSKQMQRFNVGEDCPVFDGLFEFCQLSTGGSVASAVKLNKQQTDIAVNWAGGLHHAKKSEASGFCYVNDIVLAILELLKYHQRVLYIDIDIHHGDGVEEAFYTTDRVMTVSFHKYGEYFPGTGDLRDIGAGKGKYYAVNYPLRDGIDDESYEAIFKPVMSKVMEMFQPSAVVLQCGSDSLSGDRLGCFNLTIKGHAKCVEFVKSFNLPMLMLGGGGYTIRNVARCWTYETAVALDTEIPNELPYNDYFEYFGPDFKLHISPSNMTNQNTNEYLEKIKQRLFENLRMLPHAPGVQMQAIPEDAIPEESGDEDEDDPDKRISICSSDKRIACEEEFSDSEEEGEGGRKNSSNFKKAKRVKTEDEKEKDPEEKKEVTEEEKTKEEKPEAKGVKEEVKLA

On to `Nc1ccc(-c2nnn(Cc3c(F)cc(C(=O)NO)cc3F)n2)cc1` [comp. 171, 4-[[5-(4-aminophenyl)tetrazol-2-yl]methyl]-3,5-difluoro-benzenecarbohydroxamic acid], for which the IC50 in data set [1] (Table 2) is 0.004 µM; in data set [2] it was 6.14 µM; in data set [3] it was more than 10 µM. For the same compound, the “residual percentage in rat S9 fraction” value in [4] was 48%. In addition, the “residual percentage in rat plasma” value in data set [5] is 77%. The “residual percentage in human plasma” value in data set [6] is 88%.

Take `O=C(NO)c1cc(F)c(Cc2nnc(-c3ccncc3)s2)c(F)c1` [compound 195, 3,5-difluoro-4-[[5-(4-pyridyl)-1,3,4-thiadiazol-2-yl]methyl]benzenecarbohydroxamic acid]: the IC50 in data set [1] (Table 2) is 0.004 µM; in data set [2] it was 3.12 µM; in [3], more than 10 µM. Moreover, in data set [4], the “residual percentage in rat S9 fraction” value was found to be 32%. In addition, in data set [5], the “residual percentage in rat plasma” value turned out to be 84%. In addition, the “residual percentage in human plasma” value in [6] amounted to 93%.

In the case of `CCN(CC)S(=O)(=O)c1cccc(-c2nnc(Sc3ccc(C(=O)NO)cc3)n2C)c1` [comp. 66, 4-[[5-[3-(diethylsulfamoyl)phenyl]-4-methyl-1,2,4-triazol-3-yl]sulfanyl]benzenecarbohydroxamic acid], the IC50 in data set [1] (Table 2) was found to be 0.006 µM; in data set [1] (Table 3) it was 0.006 µM; in [7] it was 0.747 µM; in data set [8], 1.03 µM; in data set [9], 0.325 µM. Besides, the “residual percentage in rat S9 fraction” value in [4] came out at 54%. Besides, in data set [5], the “residual percentage in rat plasma” value stood at 66%.

For the compound `Nn1c(Sc2ccc(C(=O)NO)cc2)nnc1-c1ccc(OC(F)F)cc1` [comp. 28, 4-[[4-amino-5-[4-(difluoromethoxy)phenyl]-1,2,4-triazol-3-yl]sulfanyl]benzenecarbohydroxamic acid], the IC50 came to 0.01 µM in data set [1] (Table 2); 0.01 µM in data set [1] (Table 3); 0.426 µM in data set [7]; 1.57 µM in [8]; 1.17 µM in [9]. In addition, the “residual percentage in rat S9 fraction” value in data set [4] is given as 68%. For the same compound, the “residual percentage in rat plasma” value in data set [5] amounted to 90%.

Consider `CN(C)c1cccc(-c2nnc(Sc3c(F)cc(C(=O)NO)cc3F)n2C)c1` [comp. 80, 4-[[5-[3-(dimethylamino)phenyl]-4-methyl-1,2,4-triazol-3-yl]sulfanyl]-3,5-difluoro-benzenecarbohydroxamic acid], for which the IC50 in [1] (Table 2) came to 0.016 µM; in data set [1] (Table 3) it was 0.016 µM; in data set [7], 4.64 µM; in [8], 13.8 µM; in data set [9], 1.28 µM. The “residual percentage in rat S9 fraction” value in [4] is 32%. Besides, the “residual percentage in rat plasma” value in [5] was 77%.

As to `Cn1c(Sc2c(F)cc(C(=O)NO)cc2F)nnc1-c1cccc(CN2CCCCCC2)c1` [comp. 167, 4-[[5-[3-(azepan-1-ylmethyl)phenyl]-4-methyl-1,2,4-triazol-3-yl]sulfanyl]-3,5-difluoro-benzenecarbohydroxamic acid], the IC50 in data set [1] (Table 2) was 0.006 µM; in data set [2], 43 µM; in [3], more than 10 µM. For the same compound, in data set [4], the “residual percentage in rat S9 fraction” value is recorded as 55%. Besides, the “residual percentage in rat plasma” value in data set [5] is reported as 85%. The “residual percentage in human plasma” value in data set [6] stood at 91%.

Turning to `CCN(CC)S(=O)(=O)c1cccc(-c2nnc(Sc3ccc(C(=O)NO)cc3)n2N)c1` [comp. 61, 4-[[4-amino-5-[3-(diethylsulfamoyl)phenyl]-1,2,4-triazol-3-yl]sulfanyl]benzenecarbohydroxamic acid], the IC50 was 0.009 µM in data set [1] (Table 2); 0.009 µM in data set [1] (Table 3); 0.495 µM in [7]; 6.91 µM in data set [8]; 2.51 µM in data set [9]. Further, in data set [4], the “residual percentage in rat S9 fraction” value is reported as 49%. Besides, the “residual percentage in rat plasma” value in [5] is listed as 71%.

With `O=C(NO)c1ccc(Cn2nnc(-c3cccs3)n2)cc1` [comp. 50, 4-[[5-(2-thienyl)tetrazol-2-yl]methyl]benzenecarbohydroxamic acid], the IC50 in [1] (Table 2) was 0.002 µM; in [1] (Table 3) it was 0.002 µM; in [7] it was 0.254 µM; in data set [8], 0.958 µM; in data set [9], 1.95 µM.

`Cn1c(Sc2c(F)cc(C(=O)NO)cc2F)nnc1-c1cccnn1` [comp. 179, 3,5-difluoro-4-[(4-methyl-5-pyridazin-3-yl-1,2,4-triazol-3-yl)sulfanyl]benzenecarbohydroxamic acid]: the IC50 in [1] (Table 2) was 0.011 µM; in [2] it was 50.3 µM; in data set [3] it was more than 10 µM. In addition, in data set [4], the “residual percentage in rat S9 fraction” value was determined as 58%. Further, in data set [5], the “residual percentage in rat plasma” value was 98%. For the same compound, in [6], the “residual percentage in human plasma” value is given as 100%.

Take `O=C(NO)c1ccc(Cn2nnnc2-c2cccs2)cc1` [comp. 8, N-hydroxy-4-((5-(thiophen-2-yl)-1H-tetrazol-1-yl)methyl)benzamide]: the values for the IC50 in data set [2] and in [3] were 8.88 µM and 3.5 µM, respectively. Further, the “residual percentage in rat S9 fraction” value in data set [4] is listed as 82%. In addition, in data set [5], the “residual percentage in rat plasma” value is 62%. Moreover, the “residual percentage in human plasma” value in [6] was found to be 91%.

Turning to `Cn1c(Sc2c(F)cc(C(=O)NO)cc2F)nnc1-c1ccc(CN2CCCCCC2)cc1` [comp. 168, 4-[[5-[4-(azepan-1-ylmethyl)phenyl]-4-methyl-1,2,4-triazol-3-yl]sulfanyl]-3,5-difluoro-benzenecarbohydroxamic acid], the IC50 turned out to be 0.007 µM in data set [1] (Table 2), 36.9 µM in data set [2] and 7 µM in data set [3].

For the compound `Cn1c(Sc2c(F)cc(C(=O)NO)cc2F)nnc1-c1ncccc1F` [comp. 180, 3,5-difluoro-4-[[5-(3-fluoro-2-pyridyl)-4-methyl-1,2,4-triazol-3-yl]sulfanyl]benzenecarbohydroxamic acid], the values for the IC50 in data set [1] (Table 2), in data set [2] and in data set [3] were 0.006 µM, 40.2 µM and more than 10 µM, respectively. The “residual percentage in rat S9 fraction” value in data set [4] stood at 70%. Besides, the “residual percentage in rat plasma” value in data set [5] amounted to 100%. Moreover, the “residual percentage in human plasma” value in data set [6] is 97%.

Take `O=C(NO)c1cc(F)c(Cn2nnnc2-c2ncccn2)c(F)c1` [comp. 125, 3,5-difluoro-4-[(5-pyrimidin-2-yltetrazol-1-yl)methyl]benzenecarbohydroxamic acid]: the IC50 was 0.017 µM in [1] (Table 2), more than 10 µM in data set [2] and more than 10 µM in data set [3]. Moreover, the “residual percentage in rat S9 fraction” value in data set [4] amounted to 90%. Further, the “residual percentage in rat plasma” value in [5] was found to be 78%. In addition, the “residual percentage in human plasma” value in [6] is listed as 77%.
